Laboratory results reported in patent US20240209022A1, “NOVEL PEPTIDE HAVING ANTI-INFLAMMATORY AND TISSUE REGENERATIVE ACTIONS” (KOREA RESEARCH INSTITUTE OF BIOSCIENCE AND BIOTECHNOLOGY, priority 2020, published 2024).
Entries after “also recorded” stand apart in the source; their conditions may differ.

Tests used:
[1] = test system: MIA-induced degenerative arthritis model; experiment: MIA-induced degenerative arthritis model; type: in vivo, C57BL/6J mice; settings: vs PBS buffer group; for diameter of the knee joint: day 1 after MIA injection, i.p.
Procedure: As a degenerative arthritis model, 9-week-old specific pathogen free (SPF) male C57BL/6J mice were anesthetized, the area around the right knee joint was cleanly shaved, and 10 μL of MIA solution (monosodium iodoacetate 0.5 mg in 10 μL 0.9% sterile saline) was injected into the knee joint cavity to induce arthritis. From 3 days before MIA (monosodium iodoacetate) solution injection, Amuc_1409 or PEP001, PEP002, PEP003, PEP004, PEP005, PEP006, PEP007, PEP008, PEP009, PEP010, PEP011, PEP012, or PEP013 was dissolved in PBS buffer at a concentration of 6.7 μM and then injected into the mouse peritoneal cavity at 150 μL per animal once a day at the same time. On day 3 (0 days) after administration of Amuc_1409 or PEP001 to PEP013, an additional intraperitoneal injection was given 1 hour before MIA injection, the drug was intraperitoneally injected once a day at the same time after MIA injection, and the experiment was terminated on the 30th day after MIA injection. In the control group, the same volume of PBS buffer was injected intraperitoneally. After MIA injection, the diameter of the knee joint was measured using a caliper for 7 days at 2-day intervals (0, 1, 3, 5, and 7 days) to evaluate swelling caused by inflammatory changes of the joint. […] At this time, the weight bearing on the limb was lower as arthritis was more severe. The weight-bearing weight (g) of each of both paws was measured, and in this experiment, the value was expressed as the ratio (%) of the right hind limb with arthritis to the total hind limb. Weight bearing ratio (%)=weight-bearing weight of right hind limb with arthritis (g)/weight-bearing weight of both hind limbs (g)×100 After termination of the experiment, the test animals were sacrificed, then the knee joint tissue of the mouse was fixed with 10% neutral buffered formalin, and the bone was decalcified with a 0.5 M EDTA solution. Next, the joint tissue was embedded in paraffin to prepare a 5 μm joint section, and Safranin O staining was performed to histopathologically analyze the degree of damage to the cartilage tissue. At this time, the degree of damage to the cartilage tissue was evaluated by examining the degree of safranin O staining of the sections and scored according to OARSI (Osteoarthritis Research Society International grade) guidelines. The scoring criteria according to the OARSI guidelines are as follows (Table 1). [table]

[2] = test system: collagen induced arthritis (CIA) model; experiment: Collagen induced arthritis (CIA) rheumatoid arthritis model; type: in vivo, DBA/1J mice; settings: vs PBS buffer group; for thickness of the ankle joint: at the end of the experiment
[3] = test system: gastritis/gastric ulcer model; experiment: HCl/ethanol gastritis/gastric ulcer model; type: in vivo, C57BL/6J mice; settings: vs PBS buffer group; for degree of gastric mucosal damage (score): oral, 1 hour after HCl/ethanol
Procedure: For a gastritis/gastric ulcer model, 7-week-old male C57BL/6J mice were used, and from 3 days before induction, the peptides of the present invention were dissolved in PBS buffer and then orally administered to the mice by 150 μL per animal at the same time once a day. Amuc_1409 or PEP001, PEP002, PEP003, PEP004, or PEP005 was dissolved in PBS buffer at a concentration of 6.7 μM, and novel tetrapeptides PEP006, PEP007, PEP008, PEP009, and PEP010 and novel tripeptides PEP011, PEP012, and PEP013 were each dissolved in PBS buffer at a concentration of 0.15 μg/150 μL (PEP006) or 0.2 μg/150 μL (PEP007, PEP008, PEP009, PEP010, PEP011, PEP012, and PEP013). For the induction of acute gastritis/gastric ulcer, 0.3 M HCl/60% ethanol was orally administered to the mice by 0.2 mL for each, the tissue was harvested after 1 hour, photographs of the inner surface of the stomach were taken, and the degree of damage to the stomach was compared. Measurements of gastritis/gastric ulcer indexes were converted into scores according to the degree of mucosal damage. A score of 0 was given if there was no damage, a score of 1 was given to an insignificant circle-shaped hemorrhagic corrosion site of less than 5 mm, a score of 2 was given to a hemorrhagic corrosion site with a length more than 5 mm, and a score of 3 was given to one or more hemorrhagic corrosion sites corresponding to the score of 2, a score of 4 was given to a hemorrhagic corrosion of more than 5 mm in length and less than 2 mm in width, a score of 5 was given to 2 to 3 hemorrhagic corrosions corresponding to the score of 4, a score of 6 was given to 4 to 5 hemorrhagic corrosions corresponding to the score of 4, a score of 7 was given to 6 or more hemorrhagic corrosions corresponding to the score of 4, and a score of 8 was given if there was hemorrhagic corrosion throughout the gastric mucosa. In order to confirm additional anti-inflammatory activity of the administered peptides, mRNA expression of inflammation-related genes, Tnfα, Il-1β, iNos, Cox2, and Il-10, in the gastric mucosal tissue was examined.

[4] = test system: full-thickness skin defect wound-induced model; experiment: Full-thickness skin defect wound-induced model (tail); type: in vivo, C57BL/6J mice; settings: 120 μM, 25 μL applied once a day for 28 days; vs vehicle
Procedure: In order to confirm the tissue regeneration efficacy of the novel peptides, an experiment was conducted using a wound-induced model induced by a full-thickness skin defect of mouse's tail. For a full-thickness skin defect wound-induced model, 9-week-old specific pathogen free (SPF) male C57BL/6J mice were anesthetized, and then in order to indicate full-thickness wounding, a full-thickness wound with a size of 10 mm×3 mm was made on the dorsal part of the mouse's tail, about 1.0 cm away from the base of the mouse's tail, using an aseptic dissection mass No. 10. Bleeding was stopped by compressing the wound, and the wound was covered with a film spray dressing (Cavilon, 3M). For 28 days from the day of wound induction, Amuc_1409 or PEP001 to PEP013 were each dissolved in vehicle (50% ethanol, 20% propylene glycol, 30% water) at a concentration of 120 μM and then applied to the wound site by 25 μL per animal once a day. For the control group, the same volume of vehicle (50% ethanol, 20% propylene glycol, 30% water) was applied to the wound site. The test was terminated on day 29 after wound induction. In order to observe the wound healing effect, the wound sites of animals in each test group were individually photographed using a digital camera at a constant height from the wound for 28 days at 7-day intervals from the day of wound induction, and the wound area was measured using the Image J Soft program.

Row | Substance | weight bearing ratio ([1]; 2 weeks and 4 weeks after MIA injection) | diameter of the knee joint [1] | thickness of the knee joint ([1]; days 3, 5, and 7 after MIA injection) | thickness of the ankle joint [2] | arthritis index (clinical score by date) [2] | swelling of the hind paws by macrophotography [2] | Cox2 expression in gastric mucosal tissue ([3]; RT-qPCR) | Il-1p expression in gastric mucosal tissue ([3]; RT-qPCR) | Tnfα mRNA expression in gastric mucosal tissue ([3]; RT-qPCR) | iNos mRNA expression in gastric mucosal tissue ([3]; RT-qPCR) | degree of gastric mucosal damage (score) [3] | wound area [4] | wound size (visually confirmed) [4] | weight bearing ratio ([1]; 2 weeks after MIA injection) | weight bearing ratio ([1]; 4 weeks after MIA injection) | thickness of the knee joint ([1]; day 3 after MIA injection) | thickness of the knee joint ([1]; day 5 after MIA injection) | thickness of the knee joint ([1]; day 7 after MIA injection)
1 | KGAY (PEP003) | significantly increased | significantly decreased | significantly decreased | significantly decreased | significantly decreased from day 26 after the first CII injection to the experiment end day | reduced overall | significantly decreased | significantly decreased | significantly decreased | significantly decreased | significantly decreased | significantly decreased | rapidly decreased | – | – | – | – | –
2 | AGAY (PEP006) | – | – | – | significantly decreased | significantly decreased on day 28 after the first injection of CII; also recorded: tended to decrease from day 30 to the experiment end day | remarkably improved | – | – | – | – | significantly decreased | significantly decreased | rapidly decreased | significantly increased | significantly increased | – | – | –
3 | RGAY (PEP007) | – | significantly decreased | – | significantly decreased | significantly decreased from day 28 after the first CII injection to the experiment end day | remarkably improved | – | – | – | – | decreased to a significant level | significantly decreased | rapidly decreased | significantly increased | significantly increased | significantly decreased | tended to decrease | significantly decreased
4 | SGAY (PEP009) | – | tended to decrease | – | significantly decreased | significantly decreased from day 30 after the first CII injection to the experiment end day | remarkably improved | – | – | – | – | decreased to a significant level | significantly decreased | rapidly decreased | tended to increase close to a significant level | significantly increased | significantly decreased | tended to decrease | significantly decreased
5 | IGAY (PEP008) | – | significantly decreased | – | significantly decreased | significantly decreased from day 30 to day 32 after the first CII | remarkably improved | – | – | – | – | decreased to a significant level | significantly decreased | rapidly decreased | significantly increased | significantly increased | significantly decreased | significantly decreased | significantly decreased
